In PubChem BioAssay AID252 (DTP/NCI, 2004) one finds T/C data, which are given here for 7 compounds.

Each structure is given as a SMILES string. Several values for one entry are separate records, joined by “and”; a condition that tells them apart may be missing. Equal entries are not always repeated. Inconclusive results and toxic doses are left out.

In the test the test system is BDF1 mice, intracerebral L1210 leukemia, survival T/C. As to the kind of experiment: NCI In Vivo Anticancer Drug Screen. Data for tumor model L1210 Leukemia (intracerebral) in B6D2F1 (BDF1) mice. The conditions noted are these: higher = longer survival. An outline of the steps:
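Antitumour effect is judged in mice with transplanted tumour by comparing survival of treated (T) against vehicle-dosed (C) groups as T/C.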

As for `O=c1n(CC2CO2)c(=O)n(CC2CO2)c(=O)n1CC1CO1` (configuration not stated), the T/C by setting is: (endpoint: median survival time, dose: 40.0 mg/kg/injection, schedule: Q01DX009 (ip), vehicle: saline) 151 % of control; (endpoint: median survival time, dose: 70.0 mg/kg/injection, schedule: Q01DX009 (ip), vehicle: saline) 121 % of control; (endpoint: median survival time, dose: 80.0 mg/kg/injection, schedule: Q01DX009 (ip), vehicle: saline) 121 % of control; (endpoint: median survival time, dose: 90.0 mg/kg/injection, schedule: Q01DX009 (ip), vehicle: saline) 122 % of control.
For `CS(=O)(=O)Nc1ccc(Nc2c3ccccc3nc3ccccc23)cc1`, the T/C by setting is: (endpoint: mean survival time, dose: 10.0 mg/kg/injection, schedule: Q01DX009 (ip), vehicle: saline) 104 % of control; (endpoint: mean survival time, dose: 10.0 mg/kg/injection, schedule: Q01DX009 (sc), vehicle: saline) 92 % of control; (endpoint: mean survival time, dose: 20.0 mg/kg/injection, schedule: Q01DX009 (ip), vehicle: saline) 101 % of control; (endpoint: mean survival time, dose: 20.0 mg/kg/injection, schedule: Q01DX009 (sc), vehicle: saline) 96 % of control; (endpoint: mean survival time, dose: 40.0 mg/kg/injection, schedule: Q01DX009 (ip), vehicle: saline) 96 % of control; (endpoint: mean survival time, dose: 40.0 mg/kg/injection, schedule: Q01DX009 (sc), vehicle: saline) 90 % of control. Moreover, for the setting “endpoint: mean survival time, dose: 80.0 mg/kg/injection, schedule: Q01DX009 (sc), vehicle: saline”, the T/C is 96 % of control.
Consider `CNC(=O)NC(=O)N(C)N=O`, for which the T/C by setting is: (endpoint: mean survival time, dose: 15.0 mg/kg/injection, schedule: Q01DX001 (ip), vehicle: carboxymethylcellulose (CMC)) 105 % of control; (endpoint: mean survival time, dose: 22.6 mg/kg/injection, schedule: Q01DX001 (ip), vehicle: carboxymethylcellulose (CMC)) 105 % of control; (endpoint: mean survival time, dose: 34.0 mg/kg/injection, schedule: Q01DX001 (ip), vehicle: carboxymethylcellulose (CMC)) 98 % of control; (endpoint: mean survival time, dose: 51.0 mg/kg/injection, schedule: Q01DX001 (ip), vehicle: carboxymethylcellulose (CMC)) 112 % of control; (endpoint: mean survival time, dose: 77.0 mg/kg/injection, schedule: Q01DX001 (ip), vehicle: carboxymethylcellulose (CMC)) 109 % of control and 111 % of control; (endpoint: mean survival time, dose: 117.0 mg/kg/injection, schedule: Q01DX001 (ip), vehicle: carboxymethylcellulose (CMC)) 91 % of control. Besides, the T/C (endpoint: mean survival time, dose: 175.0 mg/kg/injection, schedule: Q01DX001 (ip), vehicle: carboxymethylcellulose (CMC)) was 87 % of control.
With `CN(Cc1cnc2nc(N)nc(N)c2n1)c1ccc(C(=O)N[C@@H](CCC(=O)O)C(=O)O)cc1`, the T/C by setting is: (endpoint: mean survival time, dose: 0.6 mg/kg/injection, schedule: Q01DX009 (ip), vehicle: saline) 158 % of control; (endpoint: mean survival time, dose: 1.25 mg/kg/injection, schedule: Q01DX009 (ip), vehicle: other) 150 % of control; (endpoint: mean survival time, dose: 1.25 mg/kg/injection, schedule: Q01DX009 (ip), vehicle: saline) 168 % of control; (endpoint: mean survival time, dose: 2.5 mg/kg/injection, schedule: Q01DX009 (ip), vehicle: saline) 112 % of control; (endpoint: mean survival time, dose: 3.0 mg/kg/injection, schedule: Q01DX009 (ip), vehicle: sodium bicarbonate) 108 % of control; (endpoint: mean survival time, dose: 5.0 mg/kg/injection, schedule: Q01DX009 (ip), vehicle: saline) 95 % of control. Besides, the T/C is 94 % of control (endpoint: mean survival time, dose: 5.0 mg/kg/injection, schedule: Q01DX009 (ip), vehicle: sodium bicarbonate); 111 % of control (endpoint: mean survival time, dose: 8.0 mg/kg/injection, schedule: Q01DX001 (ip), vehicle: sodium bicarbonate); 113 % of control (endpoint: mean survival time, dose: 14.0 mg/kg/injection, schedule: Q04DX003 (ip), vehicle: sodium bicarbonate); 114 % of control (endpoint: mean survival time, dose: 16.0 mg/kg/injection, schedule: Q01DX001 (ip), vehicle: sodium bicarbonate); 108 % of control (endpoint: mean survival time, dose: 19.0 mg/kg/injection, schedule: Q01DX001 (ip), vehicle: water); 112 % of control (endpoint: mean survival time, dose: 23.0 mg/kg/injection, schedule: Q04DX003 (ip), vehicle: sodium bicarbonate). Besides, the T/C was 111 % of control (endpoint: mean survival time, dose: 29.0 mg/kg/injection, schedule: Q01DX001 (ip), vehicle: water); 117 % of control (endpoint: mean survival time, dose: 32.0 mg/kg/injection, schedule: Q01DX001 (ip), vehicle: sodium bicarbonate); 115 % of control (endpoint: mean survival time, dose: 39.0 mg/kg/injection, schedule: Q04DX003 (ip), vehicle: sodium bicarbonate); 113 % of control (endpoint: mean survival time, dose: 43.0 mg/kg/injection, schedule: Q01DX001 (ip), vehicle: water); 121 % of control (endpoint: mean survival time, dose: 64.0 mg/kg/injection, schedule: Q01DX001 (ip), vehicle: sodium bicarbonate); 100 % of control (endpoint: mean survival time, dose: 65.0 mg/kg/injection, schedule: Q04DX003 (ip), vehicle: sodium bicarbonate). The T/C reads like this: (endpoint: mean survival time, dose: 128.0 mg/kg/injection, schedule: Q01DX001 (ip), vehicle: sodium bicarbonate) 109 % of control; (endpoint: median survival time, dose: 0.5 mg/kg/injection, schedule: Q01DX009 (ip), vehicle: sodium bicarbonate) 102 % of control; (endpoint: median survival time, dose: 1.0 mg/kg/injection, schedule: Q01DX009 (ip), vehicle: sodium bicarbonate) 113 % of control.
With `N[C@H](C(=O)O)[C@@H]1CC(Cl)=NO1`, the T/C (endpoint: mean survival time, dose: 1.0 mg/kg/injection, schedule: Q01DX009 (ip), vehicle: saline) was 109 % of control; the T/C (endpoint: mean survival time, dose: 2.0 mg/kg/injection, schedule: Q01DX009 (ip), vehicle: saline) was 114 % of control; the T/C (endpoint: mean survival time, dose: 16.0 mg/kg/injection, schedule: Q01DX009 (ip), vehicle: saline) is 116 % of control; the T/C (endpoint: mean survival time, dose: 32.0 mg/kg/injection, schedule: Q01DX009 (ip), vehicle: saline) was 100 % of control; the T/C (endpoint: median survival time, dose: 4.0 mg/kg/injection, schedule: Q01DX009 (ip), vehicle: saline) was 120 % of control; the T/C (endpoint: median survival time, dose: 8.0 mg/kg/injection, schedule: Q01DX009 (ip), vehicle: saline) was 124 % of control. Besides, the T/C is 100 % of control (endpoint: median survival time, dose: 32.0 mg/kg/injection, schedule: Q01DX009 (ip), vehicle: saline) and 100 % of control (endpoint: median survival time, dose: 64.0 mg/kg/injection, schedule: Q01DX009 (ip), vehicle: saline).
`Cc1ncc(CNC(=O)N(CCCl)N=O)c(N)n1`: the T/C (endpoint: mean survival time, dose: 6.25 mg/kg/injection, schedule: Q01DX001 (ip), vehicle: saline) was 104 % of control; the T/C (endpoint: mean survival time, dose: 6.25 mg/kg/injection, schedule: Q01DX009 (ip), vehicle: saline) was 158 % of control; the T/C (endpoint: mean survival time, dose: 12.5 mg/kg/injection, schedule: Q01DX009 (ip), vehicle: saline) is 160 % of control; the T/C (endpoint: mean survival time, dose: 25.0 mg/kg/injection, schedule: Q01DX001 (ip), vehicle: saline) is 153 % of control; the T/C (endpoint: mean survival time, dose: 50.0 mg/kg/injection, schedule: Q01DX001 (ip), vehicle: saline) was 153 % of control; the T/C (endpoint: mean survival time, dose: 100.0 mg/kg/injection, schedule: Q01DX001 (ip), vehicle: saline) is 104 % of control.
Regarding `O=NN(CCCl)C(=O)Nc1ccc(C(F)(F)F)cc1`, the T/C was 110 % of control (endpoint: mean survival time, dose: 37.0 mg/kg/injection, schedule: Q01DX001 (ip), vehicle: carboxymethylcellulose (CMC)); 110 % of control (endpoint: mean survival time, dose: 50.0 mg/kg/injection, schedule: Q01DX001 (ip), vehicle: carboxymethylcellulose (CMC)); 118 % of control (endpoint: mean survival time, dose: 75.0 mg/kg/injection, schedule: Q01DX001 (ip), vehicle: carboxymethylcellulose (CMC)); 92 % of control (endpoint: mean survival time, dose: 112.0 mg/kg/injection, schedule: Q01DX001 (ip), vehicle: carboxymethylcellulose (CMC)).
